Results from patent publication US20230024283A1, “HERBICIDAL COMPOUNDS” (SYNGENTA CROP PROTECTION AG, priority 2020, published 2023).

How the values were obtained:
Experiment in all cases: Post-emergence herbicidal glasshouse test
Format in all cases: in vivo
Conditions in all cases: post-emergence spray, 1000 g/ha, evaluated after 13 days, five-point scale
[1] = test system: Abutilon theophrasti (ABUTH)
Method: (§1) Seeds of a variety of test species are sown in standard soil in pots (Ipomoea hederacea (IPOHE), Abutilon theophrasti (ABUTH), Amaranthus retoflexus (AMARE), Echinochloa crus-galli (ECHCG), Setaria faberi (SETFA)). After 8 days cultivation under controlled conditions in a glasshouse (at 24/16° C., day/night; 14 hours light; 65% humidity), the plants are sprayed with an aqueous spray solution derived from the formulation of the technical active ingredient in acetone / water (50:50) solution containing 0.5% Tween 20 (polyoxyethelyene sorbitan monolaurate, CAS RN 9005-64-5). Compounds are applied at 1000 g/ha unless otherwise stated. The test plants are then grown in a glasshouse under controlled conditions in a glasshouse (at 24/16° C., day/night; 14 hours light; 65% humidity) and watered twice daily. After 13 days the test is evaluated for the percentage damage caused to the plant. The biological activities are shown in the following table on a five-point scale (5=81-100%; 4=61-80%; 3=41-60%; 2=21-40%; 1=0-20%).

[2] = test system: Amaranthus retoflexus (AMARE)
Method: as §1

[3] = test system: Ipomoea hederacea (IPOHE)
Method: as §1

Setaria faberi (SETFA) = test system: Setaria faberi (SETFA)
Method: as §1

[4] = test system: Echinochloa crus-galli (ECHCG)
Method: as §1

Row | Compound | percentage damage caused to the plant, ABUTH [1] | percentage damage caused to the plant, AMARE [2] | percentage damage caused to the plant, IPOHE [3] | percentage damage caused to the plant, SETFA (Setaria faberi (SETFA)) | percentage damage caused to the plant, ECHCG [4]
1 | N#Cc1cc(Cl)c(O)c(-n2cc(C(F)(F)F)cn2)c1 [Compound 1.001, 3-chloro-4-hydroxy-5-[4-(trifluoromethyl)pyrazol-1-yl]benzonitrile] | 5 (5=81-100%) | 4 (4=61-80%) | 1 (1=0-20%) | 4 (4=61-80%) | –
2 | N#Cc1cc(OC(F)(F)F)c(O)c(-c2cccc(F)c2)c1 [Compound 1.002] | 4 (4=61-80%) | 5 (5=81-100%) | 5 (5=81-100%) | 2 (2=21-40%) | 3 (3=41-60%)
3 | N#Cc1cc(Cl)c(O)c(-c2cccc(F)c2)c1 [Compound 1.004] | 5 (5=81-100%) | 5 (5=81-100%) | 1 (1=0-20%) | 3 (3=41-60%) | 3 (3=41-60%)
4 | N#Cc1cc(-c2cccc(F)c2)c(O)c(C(F)(F)F)c1 [Compound 1.005] | 5 (5=81-100%) | 4 (4=61-80%) | 5 (5=81-100%) | 1 (1=0-20%) | 4 (4=61-80%)
5 | Cn1nc(-c2cc(C#N)cc(Br)c2O)cc1C(F)(F)F [Compound 1.007, 3-bromo-4-hydroxy-5-[1-methyl-5-(trifluoromethyl)pyrazol-3-yl]benzonitrile] | 2 (2=21-40%) | 5 (5=81-100%) | 3 (3=41-60%) | 1 (1=0-20%) | –
6 | N#Cc1cc(Br)c(O)c(-c2ccc(C(F)(F)F)c(C(F)(F)F)c2)c1 [Compound 1.008] | 2 (2=21-40%) | 5 (5=81-100%) | 2 (2=21-40%) | 4 (4=61-80%) | –
7 | COc1cc(-c2cc(C#N)cc(Br)c2O)cc(C(F)(F)F)n1 [Compound 1.009] | 2 (2=21-40%) | 4 (4=61-80%) | 2 (2=21-40%) | 2 (2=21-40%) | –
8 | N#Cc1cc(Br)c(O)c(-c2cc(F)cc(C(F)(F)F)c2)c1 [Compound 1.027] | 4 (4=61-80%) | 5 (5=81-100%) | 3 (3=41-60%) | 4 (4=61-80%) | –
9 | N#Cc1cc(F)cc(-c2cc(C#N)cc(Br)c2O)c1 [Compound 1.032] | 4 (4=61-80%) | 5 (5=81-100%) | 3 (3=41-60%) | 4 (4=61-80%) | –
10 | N#Cc1cc(Br)c(O)c(-c2cc(F)cc(Cl)c2)c1 [Compound 1.034] | 4 (4=61-80%) | 4 (4=61-80%) | – | – | –
11 | N#Cc1cc(Br)c(O)c(-c2cnc3c(c2)OC(F)(F)O3)c1 [Compound 1.036] | 2 (2=21-40%) | 5 (5=81-100%) | 3 (3=41-60%) | 4 (4=61-80%) | 3 (3=41-60%)
12 | N#Cc1cc(Br)c(O)c(-c2cncnc2)c1 [Compound 1.044] | 5 (5=81-100%) | 5 (5=81-100%) | 1 (1=0-20%) | 3 (3=41-60%) | 2 (2=21-40%)
13 | N#Cc1cc(Br)c(O)c(-c2cccc(Cl)c2F)c1 [Compound 1.045] | 3 (3=41-60%) | 5 (5=81-100%) | 1 (1=0-20%) | 1 (1=0-20%) | 1 (1=0-20%)
14 | N#Cc1cc(Br)c(O)c(-c2cccc(F)c2)c1 [Compound 1.046, 3-bromo-5-(3-fluorophenyl)-4-hydroxy-benzonitrile] | 5 (5=81-100%) | 5 (5=81-100%) | 3 (3=41-60%) | 3 (3=41-60%) | 2 (2=21-40%)
15 | N#Cc1cc(Br)c(O)c(-c2ccccc2)c1 [Compound 1.047] | 5 (5=81-100%) | 5 (5=81-100%) | 3 (3=41-60%) | 2 (2=21-40%) | 1 (1=0-20%)
16 | N#Cc1cc(Br)c(O)c(-c2ccc(F)cc2)c1 [Compound 1.048] | 5 (5=81-100%) | 5 (5=81-100%) | 2 (2=21-40%) | 2 (2=21-40%) | 2 (2=21-40%)
17 | N#Cc1cc(Br)c(O)c(-c2cncc(F)c2)c1 [Compound 1.052] | 5 (5=81-100%) | 5 (5=81-100%) | 1 (1=0-20%) | 3 (3=41-60%) | 1 (1=0-20%)
18 | N#Cc1cccc(-c2cc(C#N)cc(Br)c2O)c1 [Compound 1.053] | 2 (2=21-40%) | 5 (5=81-100%) | 3 (3=41-60%) | 1 (1=0-20%) | 1 (1=0-20%)
19 | N#Cc1cc(Br)c(O)c(-c2cccc(Cl)c2)c1 [Compound 1.054] | 5 (5=81-100%) | 5 (5=81-100%) | 2 (2=21-40%) | 2 (2=21-40%) | 3 (3=41-60%)
20 | N#Cc1cc(Br)c(O)c(-c2ccc(C(F)(F)F)cc2)c1 [Compound 1.058] | 1 (1=0-20%) | 5 (5=81-100%) | 2 (2=21-40%) | 3 (3=41-60%) | 2 (2=21-40%)
21 | N#Cc1cc(Br)c(O)c(-c2cccc(C(F)(F)F)c2)c1 [Compound 1.060] | 4 (4=61-80%) | 5 (5=81-100%) | 2 (2=21-40%) | 1 (1=0-20%) | 1 (1=0-20%)
22 | N#Cc1cc(Br)c(O)c(-c2cccc(Br)c2)c1 [Compound 1.061] | 3 (3=41-60%) | 5 (5=81-100%) | 3 (3=41-60%) | 1 (1=0-20%) | 1 (1=0-20%)
23 | N#Cc1cc(-c2csc(C(F)(F)F)n2)c(O)c(C(F)(F)F)c1 [Compound 1.225] | – | 5 (5=81-100%) | – | – | –
